# According to US11149068B2, “Pore-forming peptides and uses thereof” (The Administrators of the Tulane Educational Fund, priority 2018, dated 2021):
# Ends that are not written are not given here.
# Assays:
# [1] = Macromolecular leakage assay (release of 40 kDa TAMRA-biotin-dextran from lipid vesicles); assay type: biochemical; conditions: for dextran release at pH 7: peptide to lipid ratios as high as 1:50
# Protocol: (§1) Large unilamellar vesicles for leakage assays were prepared as previously described (37) in 100 mM potassium chloride, with 10 mM sodium phosphate or 10 mM sodium acetate buffer. For small molecule leakage, lipids, dried from chloroform, were resuspended in buffer made of: 12.5 mM ANTS, 45 mM DPX, 5 mM HEPES, and 20 mM sodium chloride. For macromolecular leakage assays, lipids were resuspended in buffer with 1 mg/ml TAMRA-biotin-dextran (TBD). Lipid suspensions were frozen and thawed ten times and then extruded 10 times using a 0.1 um pore size Nuclepore polycarbonate filter (38). After extrusion, external ANTS and DPX were removed by gel filtration with Sephadex G100. External TBD was removed using streptavidin agarose resin.
# As described previously (33), 40 nM Alexafluor488-labelled streptavidin (SA) was added to a solution of vesicles with entrapped TBD. This solution was added to wells of a 96-well plate containing peptide, and the plate was incubated for 60 min. Release of the 40 kDa dextran enables TBD-SA complex formation, which leads to quenching of the AF488 fluorescence (excitation 495 nm, emission at 519 nm) by TAMRA. The fraction of macromolecule leakage was determined by Equation 2:
# [formula] where I is the intensity at 60 min, Ibackground is the intensity of a vesicle control with no peptide, and Itriton is the intensity in the presence of vesicles and 0.1% v/v of the detergent Triton X-100, added to solubilize the vesicles and release the ANTS.
# Step 4: Next, to the same wells, a different preparation of vesicles was added. These vesicles have entrapped 40 kDa TBD and external Alexafluor488 streptavidin. The TBD vesicles were in sodium acetate buffer at pH 4 so that the final pH in each well was 5.0. This second addition of vesicles increased the total volume to 200 μl which decreased peptide to 2.5 μM and decreased ANTS vesicle concentration to 0.5 mM. The new TBD vesicles were present at 1.5 mM so that the total peptide to total lipid ratio was roughly about 1:800.
# Step 5: After 60 minutes, the intensity of the AF488-streptavidin was measured to quantitate macromolecule release, which is calculated with equation 2. This orthogonal and sequential screen gives two measurements that are used to identify peptides with the desired properties: i) Small molecule release at pH 7 and P:L=1:200; ii) Macromolecule release at pH 5 and P:L=1:800.
# Verification of positive peptides. Since the selected peptides are very similar to each other, a subset of them were synthesized and purified for detailed validation. Tested peptides included four representative sequences with five acidic residues, pHD24, pHD34, pHD108 and pHD118 as well as pHD15, one of the two with six acidic residues. Because there is interest in pH-triggered macromolecule release at low pH, the positive peptides were validated with the macromolecular release assay using 40 kDa dextran and 53 kD streptavidin, described above. Dextran leakage was measured as functions of peptide concentration and pH using vesicles made from phosphatidylcholine lipids.
# [2] = Small molecule leakage assay (ANTS/DPX release from lipid vesicles); assay type: biochemical; conditions: screen conditions
# Protocol: as §1, with “External TBD was removed using streptavidin agarose resin.” left out
# Lipid vesicles with entrapped ANTS and DPX were diluted into wells of a 96 well plate containing peptide. After 30 minutes, vesicle permeabilization was measured by an increase in ANTS fluorescence, with excitation at 350 nm and emission at 519 nm. Fractional leakage was quantified using Equation 1: […]
# Step 2: Aliquots of peptides in water from the plate in Step 1 were added to wells of a second plate, followed by addition of 1 mM lipid vesicles in 100 μl of sodium phosphate buffer at pH 7. […] Leakage, if it occurs, causes an increase in fluorescence of ANTS. […]
# Step 3: After 30 minutes of incubation, ANTS fluorescence was measured for each well to quantitate small molecule release using equation 1.
# [3] = test system: Chinese Hamster Ovary cells; test: Cell viability, Alamar Blue assay; assay type: cell-based; conditions: ten minutes with peptide at pH 5 or pH 7, overnight recovery; except at the highest concentration
# Protocol: FIGS. 7A-7B are graphs showing the effect of peptides on the viability Chinese Hamster Ovary cells incubated with either the lytic peptide MelP5, or the pH-triggerred membrane permeabilizing peptide pHD108. Cells were grown to 50% confluency, and then treated for ten minutes with peptide in cell culture media at pH 5 (FIG. 7A) or at pH 7 (FIG. 7B). Full media with growth factors was added and the cells recovered overnight. Viability was assessed with the Alamar Blue assay. The values were normalized to cells treated with media only (negative control) and media only, no cells (positive control).
# [4] = Circular dichroism spectroscopy of peptide secondary structure in the presence of vesicles versus pH; assay type: physicochemical; conditions: P:L=1:200
# Protocol: FIGS. 5A-5B are graphs depicting example binding and folding data. FIG. 5A: Circular dichroism spectra of pHD108 (SEQ ID NO: 9) versus pH at P:L=1:200 in 1 mM POPC vesicles. Separate samples are made at each pH and equilibrated for 30 minutes prior to the measurement. The spectra show a structural transition from random coil at pH 7 to classical α-helix at pH<5.75. FIG. 5B: Tryptophan fluorescence spectra of pHD108 at P:L=1:200 in 1 mM POPC vesicles. Separate samples are made at each pH and equilibrated for 30 minutes prior to the measurement. The spectra show a transition from a more polar, water-exposed environment to a less polar or buried environment consistent with peptide partitioning into bilayers.
# Peptide secondary structure in the presence of vesicles as a function of pH was studied by circular dichroism spectroscopy. Example CD spectra for pHD108 at P:L=1:200 are seen in FIG. 5A and show a pH-triggered transition from random coil to α-helical structure with an effective pKa around 5.5. Circular dichroism was measured in a JASCO 810 spectropolarimeter. Samples in buffers of various pH were prepared by mixing peptide and vesicle solutions, each prepared at the needed pH. Spectra were collected on samples of 2 mM vesicles and 10 μM peptide in 1 mm path rectangular quartz cuvette after 1 hour of equilibration.
substance,measurement,setting,value
"GIGAVLKVLATGLPALISWIKAAQQL [MelP5, synthetically evolved gain-of-function variant of melittin, non pH-sensitive macromolecular pore-former]",macromolecule release,"[1]; screen conditions, 1 nmol, all pH values",partial
same,release of macromolecule probe (TBD),"[1]; screen conditions, 4 nmol (P:L=1:100)",essentially complete release
same,release of small molecule probe (ANTS),[2]; 4 nmol,essentially complete release
GIGDVLHELAADLPELQEWIHAAQQL [pHD24],dextran release at pH 7,[1],no activity
GIGEVLHELADDLPDLQEWIHAAQQL [pHD15],apparent pKa of macromolecule leakage (curve midpoints),"[1]; P:L=1:200, 1 mM POPC vesicles, 40 kDa dextran",lowest apparent pKa value
same,dextran release at pH 7,[1],no activity
GIGEVLHELAEGLPELQEWIHAAQQL [pHD108],toxicity to mammalian cells,[3],did not exhibit toxicity
same,effective pKa of transition from random coil to α-helical structure,[4],around 5.5
Triton X-100,release of macromolecule probe (TBD),"[1]; screen conditions, 0.1% v/v",essentially complete release
same,release of small molecule probe (ANTS),[2]; 0.1% v/v,essentially complete release
